Test results: patent publication US20150176022A1, “HERBICIDE-RESISTANT SUNFLOWER PLANTS, POLYNUCLEOTIDES ENCODING HERBICIDE=RESISTANT ACETO HYDROXY ACID SYNTHASE LARGE SUBUNIT PROTEINS, AND METHODS OF USE” (priority 2013, published 2015)

What was measured:
Assay in all cases: Greenhouse whole-plant imazapir dose response (Example 8)
Assay type in all cases: in vivo, Helianthus annuus
[1] = test system: sunflower GIM 5-6 (Restorer Line, A122T); settings: GIM5-6, 14 DAT
Protocol: (§1) A greenhouse study was conducted to quantify and contrast the imazapir sensitivity of the mutants A122T and A205V in different genetic backgrounds at the whole plant level in sunflower. Seeds of the different sunflower lines that were used in this study were obtained under field conditions.
(§2) Seeds were sown in Petri dishes and, after germination, plantlets were transplanted to pots of 10 cm of diameter in a potting media consisting of equal parts of vermiculite, soil and sand. Plants were grown in a greenhouse under natural light conditions supplemented with 400 W sodium halide lamps to provide a 16 hrs daylength. Day/night temperatures were 25 and 20° C., respectively. At the V2 stage 10 plants of each genotype were randomly assigned to each treatment consisting of […] imazapir doses (0, 40, 80, 160, 240, 320, 400 and 480 g ai/ha), and a zero-time biomass determination. Experiment was arranged as a randomized block design with a full factorial (sunflower line×treatment) arrangement of treatments and 10 replications.
(§3) On the day of herbicide application ten plants of each genotype were cut at the cotyledonal node and dried at 60° C. for 48 hrs zero-time for dried weight determination. […] Height was determined as the distance between the cotyledonal node and the apex of each plant. For root biomass determination, each plant was taken from the pot and the potting media was washed out from the roots. Above ground biomass data from each line were converted to biomass accumulation after application by subtracting the appropriate average zero-time biomass from each sample. Dry biomass data were converted to percentages of the untreated control plants within each line to allow direct comparisons between groups.

[2] = test system: sunflower TH1 (Hybrid, A205V); settings: 14 DAT
Protocol: as §1, §2, §3

[3] = test system: sunflower TH12 (Restorer Line, A122T); settings: 14 DAT
Protocol: as §1, §2, §3

[4] = test system: sunflower TH9 (Hybrid, A205V); settings: 14 DAT
Protocol: as §1, §2, §3

In the case of CC(C)C1(C)N=C(c2ncccc2C(=O)O)NC1=O (stereo not drawn) [imazapir, imazapyr], the “biomass accumulation (dry biomass, % of untreated)” value ([1]; 0.5× (40 g ai/ha)) is reported as 100.0%, the “plant height (% of untreated)” value ([1]; 0.5× (40 g ai/ha)) is reported as 100.0% and the “root dry weight (% of untreated)” value ([1]; 0.5× (40 g ai/ha)) is reported as 100%. The “biomass accumulation (dry biomass, % of untreated)” value ([1]; 1× (80 g ai/ha)) was 96.4%, the “plant height (% of untreated)” value ([1]; 1× (80 g ai/ha)) was 100.0% and the “root dry weight (% of untreated)” value ([1]; 1× (80 g ai/ha)) was 88.0%. The “biomass accumulation (dry biomass, % of untreated)” value ([1]; 2× (160 g ai/ha)) was 97.7%, the “plant height (% of untreated)” value ([1]; 2× (160 g ai/ha)) was 99.1% and the “root dry weight (% of untreated)” value ([1]; 2× (160 g ai/ha)) was 90.0%. For the same molecule, the “biomass accumulation (dry biomass, % of untreated)” value ([1]; 3× (240 g ai/ha)) was 95.8%, the “plant height (% of untreated)” value ([1]; 3× (240 g ai/ha)) was 98.1% and the “root dry weight (% of untreated)” value ([1]; 3× (240 g ai/ha)) was 98.0%. For the same molecule, the “biomass accumulation (dry biomass, % of untreated)” value ([1]; 4× (320 g ai/ha)) was 90.8%, the “plant height (% of untreated)” value ([1]; 4× (320 g ai/ha)) was 91.0% and the “root dry weight (% of untreated)” value ([1]; 4× (320 g ai/ha)) was 80.0%. The “biomass accumulation (dry biomass, % of untreated)” value ([1]; 5× (400 g ai/ha)) was 81.9%, the “plant height (% of untreated)” value ([1]; 5× (400 g ai/ha)) was 94.3% and the “root dry weight (% of untreated)” value ([1]; 5× (400 g ai/ha)) was 80.0%. For the same molecule, the “biomass accumulation (dry biomass, % of untreated)” value ([1]; 6× (480 g ai/ha)) was 78.0%, the “plant height (% of untreated)” value ([1]; 6× (480 g ai/ha)) was 85.8% and the “root dry weight (% of untreated)” value ([1]; 6× (480 g ai/ha)) was 65.8%. The “Phytotoxicity Index” value ([2]; 0.5× (40 g ai/ha)) was 0, the “biomass accumulation (dry biomass, % of untreated)” value ([2]; 0.5× (40 g ai/ha)) was 95.0% and the “plant height (% of untreated)” value ([2]; 0.5× (40 g ai/ha)) was 99.5%. The “root dry weight (% of untreated)” value ([2]; 0.5× (40 g ai/ha)) was 79.4%, the “Phytotoxicity Index” value ([2]; 1× (80 g ai/ha)) was 0 and the “biomass accumulation (dry biomass, % of untreated)” value ([2]; 1× (80 g ai/ha)) was 89.6%. For the same molecule, the “plant height (% of untreated)” value ([2]; 1× (80 g ai/ha)) was 99.5%, the “root dry weight (% of untreated)” value ([2]; 1× (80 g ai/ha)) was 70.7% and the “Phytotoxicity Index” value ([2]; 2× (160 g ai/ha)) was 1.8. For the same molecule, the “biomass accumulation (dry biomass, % of untreated)” value ([2]; 2× (160 g ai/ha)) was 75.5%, the “plant height (% of untreated)” value ([2]; 2× (160 g ai/ha)) was 78.6% and the “root dry weight (% of untreated)” value ([2]; 2× (160 g ai/ha)) was 69.6%. For the same molecule, the “Phytotoxicity Index” value ([2]; 3× (240 g ai/ha)) was 6.4, the “biomass accumulation (dry biomass, % of untreated)” value ([2]; 3× (240 g ai/ha)) was 60.4% and the “plant height (% of untreated)” value ([2]; 3× (240 g ai/ha)) was 48.4%. The “root dry weight (% of untreated)” value ([2]; 3× (240 g ai/ha)) was 42.3%, the “Phytotoxicity Index” value ([2]; 4× (320 g ai/ha)) was 8.0 and the “biomass accumulation (dry biomass, % of untreated)” value ([2]; 4× (320 g ai/ha)) was 46.5%. For the same molecule, the “plant height (% of untreated)” value ([2]; 4× (320 g ai/ha)) was 28.9%, the “root dry weight (% of untreated)” value ([2]; 4× (320 g ai/ha)) was 38.6% and the “Phytotoxicity Index” value ([2]; 5× (400 g ai/ha)) was 8.9. The “biomass accumulation (dry biomass, % of untreated)” value ([2]; 5× (400 g ai/ha)) was 38.9%, the “plant height (% of untreated)” value ([2]; 5× (400 g ai/ha)) was 25.3% and the “root dry weight (% of untreated)” value ([2]; 5× (400 g ai/ha)) was 34.7%. For the same molecule, the “Phytotoxicity Index” value ([2]; 6× (480 g ai/ha)) was 9.0, the “biomass accumulation (dry biomass, % of untreated)” value ([2]; 6× (480 g ai/ha)) was 33.9% and the “plant height (% of untreated)” value ([2]; 6× (480 g ai/ha)) was 27.1%. The “root dry weight (% of untreated)” value ([2]; 6× (480 g ai/ha)) was 23.1%, the “Phytotoxicity Index” value ([3]; 0.5× (40 g ai/ha)) was 0.0 and the “biomass accumulation (dry biomass, % of untreated)” value ([3]; 0.5× (40 g ai/ha)) was 100.0%. For the same molecule, the “plant height (% of untreated)” value ([3]; 0.5× (40 g ai/ha)) was 100.0%, the “root dry weight (% of untreated)” value ([3]; 0.5× (40 g ai/ha)) was 99.4% and the “Phytotoxicity Index” value ([3]; 1× (80 g ai/ha)) was 0.0. For the same molecule, the “biomass accumulation (dry biomass, % of untreated)” value ([3]; 1× (80 g ai/ha)) was 99.1%, the “plant height (% of untreated)” value ([3]; 1× (80 g ai/ha)) was 100.0% and the “root dry weight (% of untreated)” value ([3]; 1× (80 g ai/ha)) was 100%. The “Phytotoxicity Index” value ([3]; 2× (160 g ai/ha)) was 0.0, the “biomass accumulation (dry biomass, % of untreated)” value ([3]; 2× (160 g ai/ha)) was 97.0% and the “plant height (% of untreated)” value ([3]; 2× (160 g ai/ha)) was 101.8%. For the same molecule, the “root dry weight (% of untreated)” value ([3]; 2× (160 g ai/ha)) was 100%, the “Phytotoxicity Index” value ([3]; 3× (240 g ai/ha)) was 0.0 and the “biomass accumulation (dry biomass, % of untreated)” value ([3]; 3× (240 g ai/ha)) was 96.1%. The “plant height (% of untreated)” value ([3]; 3× (240 g ai/ha)) was 97.0%, the “root dry weight (% of untreated)” value ([3]; 3× (240 g ai/ha)) was 100.0% and the “Phytotoxicity Index” value ([3]; 4× (320 g ai/ha)) was 0.0. For the same molecule, the “biomass accumulation (dry biomass, % of untreated)” value ([3]; 4× (320 g ai/ha)) was 84.3%, the “plant height (% of untreated)” value ([3]; 4× (320 g ai/ha)) was 92.1% and the “root dry weight (% of untreated)” value ([3]; 4× (320 g ai/ha)) was 74.5%. The “Phytotoxicity Index” value ([3]; 5× (400 g ai/ha)) was 0.0, the “biomass accumulation (dry biomass, % of untreated)” value ([3]; 5× (400 g ai/ha)) was 77.5% and the “plant height (% of untreated)” value ([3]; 5× (400 g ai/ha)) was 84.8%. The “root dry weight (% of untreated)” value ([3]; 5× (400 g ai/ha)) was 65.0%, the “Phytotoxicity Index” value ([3]; 6× (480 g ai/ha)) was 0.5 and the “biomass accumulation (dry biomass, % of untreated)” value ([3]; 6× (480 g ai/ha)) was 70.7%. The “plant height (% of untreated)” value ([3]; 6× (480 g ai/ha)) was 79.8%, the “root dry weight (% of untreated)” value ([3]; 6× (480 g ai/ha)) was 57.8% and the “Phytotoxicity Index” value ([4]; 0.5× (40 g ai/ha)) was 0. For the same molecule, the “biomass accumulation (dry biomass, % of untreated)” value ([4]; 0.5× (40 g ai/ha)) was 91.7%, the “plant height (% of untreated)” value ([4]; 0.5× (40 g ai/ha)) was 100.0% and the “root dry weight (% of untreated)” value ([4]; 0.5× (40 g ai/ha)) was 81.5%. For the same molecule, the “Phytotoxicity Index” value ([4]; 1× (80 g ai/ha)) was 0, the “biomass accumulation (dry biomass, % of untreated)” value ([4]; 1× (80 g ai/ha)) was 81.7% and the “plant height (% of untreated)” value ([4]; 1× (80 g ai/ha)) was 100.0%. For the same molecule, the “root dry weight (% of untreated)” value ([4]; 1× (80 g ai/ha)) was 84.9%, the “Phytotoxicity Index” value ([4]; 2× (160 g ai/ha)) was 1.6 and the “biomass accumulation (dry biomass, % of untreated)” value ([4]; 2× (160 g ai/ha)) was 54.7%. The “plant height (% of untreated)” value ([4]; 2× (160 g ai/ha)) was 78.9%, the “root dry weight (% of untreated)” value ([4]; 2× (160 g ai/ha)) was 58.8% and the “Phytotoxicity Index” value ([4]; 3× (240 g ai/ha)) was 5.1. The “biomass accumulation (dry biomass, % of untreated)” value ([4]; 3× (240 g ai/ha)) was 35.7%, the “plant height (% of untreated)” value ([4]; 3× (240 g ai/ha)) was 50.0% and the “root dry weight (% of untreated)” value ([4]; 3× (240 g ai/ha)) was 34.1%. The “Phytotoxicity Index” value ([4]; 4× (320 g ai/ha)) was 8.4, the “biomass accumulation (dry biomass, % of untreated)” value ([4]; 4× (320 g ai/ha)) was 25.3% and the “plant height (% of untreated)” value ([4]; 4× (320 g ai/ha)) was 38.1%. For the same molecule, the “root dry weight (% of untreated)” value ([4]; 4× (320 g ai/ha)) was 27.3%, the “Phytotoxicity Index” value ([4]; 5× (400 g ai/ha)) was 8.9 and the “biomass accumulation (dry biomass, % of untreated)” value ([4]; 5× (400 g ai/ha)) was 19.8%. For the same molecule, the “plant height (% of untreated)” value ([4]; 5× (400 g ai/ha)) was 31.8%, the “root dry weight (% of untreated)” value ([4]; 5× (400 g ai/ha)) was 29.9% and the “Phytotoxicity Index” value ([4]; 6× (480 g ai/ha)) was 8.9. The “biomass accumulation (dry biomass, % of untreated)” value ([4]; 6× (480 g ai/ha)) was 19.5%, the “plant height (% of untreated)” value ([4]; 6× (480 g ai/ha)) was 34.7% and the “root dry weight (% of untreated)” value ([4]; 6× (480 g ai/ha)) was 22.1%.
